In BigSolDB 2.1:

O=C1NC23NC(=O)NC2(N1)C(=O)NC3=O (stereo not given)
solubility (mole fraction)
Settings	273.15 K	278.15 K	283.15 K	288.15 K	293.15 K	298.15 K	303.15 K	308.15 K	313.15 K	318.15 K
in 1,4-dioxane	0.000149	0.000174	0.000214	0.000267	0.000333	0.000453	0.000601	0.000696	0.000856	0.00102
in THF	0.000553	0.000655	0.000783	0.000992	0.00121	0.00151	0.00192	0.00224	0.00274	0.00325
in acetone	5.58e-05	6.73e-05	7.84e-05	9.4e-05	0.000114	0.000131	0.000158	0.00018	0.000202	0.000246
in acetonitrile	9e-06	1.15e-05	1.43e-05	1.72e-05	2.16e-05	2.75e-05	3.6e-05	4.4e-05	5.5e-05	6.79e-05
in ethanol	6.15e-05	7.48e-05	9.23e-05	0.000113	0.000136	0.00017	0.000214	0.000264	0.000322	0.000419
in ethyl acetate	2.59e-05	3.38e-05	4.59e-05	6.9e-05	9.2e-05	0.000124	0.000167	0.000225	0.000322	0.000413
in ethylene glycol	0.00029	0.000326	0.00036	0.000404	0.000459	0.000516	0.000587	0.000638	0.00073	0.000822
in isopropanol	0.000113	0.000133	0.000162	0.000192	0.000234	0.000284	0.000364	0.000482	0.000526	0.000614
in methanol	0.00161	0.00184	0.00243	0.00286	0.00348	0.00409	0.0049	0.00592	0.00727	0.00843
in n-propanol	2.56e-05	3.13e-05	3.83e-05	4.65e-05	6.12e-05	8.12e-05	0.000103	0.000122	0.000151	0.00019
in toluene	3.2e-06	4.3e-06	5.4e-06	6.1e-06	8.4e-06	1.05e-05	1.28e-05	1.5e-05	1.95e-05	2.6e-05
in water	5.92e-05	7.18e-05	9.34e-05	0.000126	0.000159	0.000188	0.000223	0.00025	0.000313	0.000369
